Data published in patent US20060143718A1, “Transgenic animals for monitoring water quality” (priority 2000, published 2006).

Key:
MRE constructs = test: Transient transfection of LUC reporter constructs in zebrafish ZEM2S cells, MRE constructs; format: cell-based
EPRE constructs = test: Transient transfection of LUC reporter constructs in zebrafish ZEM2S cells, EPRE constructs; format: cell-based
AHRE reporter constructs = test: Transient transfection of LUC reporter constructs in zebrafish ZEM2S cells, AHRE constructs; format: cell-based
[1] = cited from earlier work

## [Cl][Cd][Cl] [CdCl2]
MRE constructs
  concentration achieving maximal LUC activity: 30 µM

## CC(C)(C)c1cc(O)ccc1O [tBHQ]
EPRE constructs
  concentration achieving maximal LUC activity: 10 µM

## Clc1cc2c(cc1Cl)Oc1cc(Cl)c(Cl)cc1O2 [TCDD, 2,3,7,8-tetrachlorodibenzo-p-dioxin]
AHRE reporter constructs
  concentration achieving maximal LUC activity: 10 nM
[1]
  bioconcentration in fish: 100,000 fold
[1]; fish, in the food chain
  bioconcentration: > 100,000 times
